According to PubChem BioAssay (NCI):
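A five-concentration, 48-hour dose response in 96-well plates underlies each endpoint, interpolated linearly between surrounding concentrations. The concentration for full growth arrest is given as TGI.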

Tests used:
Test in all cases: NCI anticancer screen, dose series, 48 h
786-0 renal = system: 786-0 renal
A498 renal = system: A498 renal
A549 NSCLC = system: A549 NSCLC
ACHN renal = system: ACHN renal
BT-549 breast = system: BT-549 breast
CAKI-1 renal = system: CAKI-1 renal
CCRF-CEM leukemia = system: CCRF-CEM leukemia
COLO 205 colon = system: COLO 205 colon
EKVX NSCLC = system: EKVX NSCLC
HCC-2998 colon = system: HCC-2998 colon
HCT-116 colon = system: HCT-116 colon
HCT-15 colon = system: HCT-15 colon
HL-60(TB) leukemia = system: HL-60(TB) leukemia
HOP-62 NSCLC = system: HOP-62 NSCLC
HOP-92 NSCLC = system: HOP-92 NSCLC
HS 578T breast = system: HS 578T breast
HT29 colon = system: HT29 colon
IGROV1 ovarian = system: IGROV1 ovarian
K-562 leukemia = system: K-562 leukemia
KM12 colon = system: KM12 colon
LOX IMVI melanoma = system: LOX IMVI melanoma
M14 melanoma = system: M14 melanoma
MALME-3M melanoma = system: MALME-3M melanoma
MCF7 breast = system: MCF7 breast
MDA-MB-231 breast = system: MDA-MB-231 breast
MDA-MB-435 = system: MDA-MB-435
MDA-N = system: MDA-N
MOLT-4 leukemia = system: MOLT-4 leukemia
NCI-H226 lung = system: NCI-H226 lung
NCI-H23 lung = system: NCI-H23 lung
NCI-H460 lung = system: NCI-H460 lung
NCI-H522 lung = system: NCI-H522 lung
NCI/ADR-RES ovarian = system: NCI/ADR-RES ovarian
OVCAR-3 ovarian = system: OVCAR-3 ovarian
OVCAR-4 ovarian = system: OVCAR-4 ovarian
OVCAR-5 ovarian = system: OVCAR-5 ovarian
OVCAR-8 ovarian = system: OVCAR-8 ovarian
PC-3 prostate = system: PC-3 prostate
RPMI-8226 leukemia = system: RPMI-8226 leukemia
RXF 393 renal = system: RXF 393 renal
SF-268 CNS = system: SF-268 CNS
SF-295 CNS = system: SF-295 CNS
SF-539 CNS = system: SF-539 CNS
SK-MEL-2 melanoma = system: SK-MEL-2 melanoma
SK-MEL-28 melanoma = system: SK-MEL-28 melanoma
SK-MEL-5 melanoma = system: SK-MEL-5 melanoma
SK-OV-3 ovarian = system: SK-OV-3 ovarian
SN12C renal = system: SN12C renal
SNB-19 CNS = system: SNB-19 CNS
SNB-75 CNS = system: SNB-75 CNS
SW-620 colon = system: SW-620 colon
T-47D breast = system: T-47D breast
TK-10 renal = system: TK-10 renal
U251 CNS = system: U251 CNS
UACC-257 melanoma = system: UACC-257 melanoma
UO-31 renal = system: UO-31 renal

Measured: TGI

CCCCCCCCCCCCOP(=O)(O)OP(=O)(O)OCC1OC(n2cc(C)c(=O)[nH]c2=O)CC1O (stereo unspecified)
> 100 µM: 786-0 renal | A498 renal | A549 NSCLC | ACHN renal | BT-549 breast | CAKI-1 renal | CCRF-CEM leukemia | COLO 205 colon | EKVX NSCLC | HCC-2998 colon | HCT-116 colon | HCT-15 colon | HL-60(TB) leukemia | HOP-62 NSCLC | HOP-92 NSCLC | HS 578T breast | HT29 colon | IGROV1 ovarian | K-562 leukemia | KM12 colon | LOX IMVI melanoma | M14 melanoma | MALME-3M melanoma | MCF7 breast | MDA-MB-231 breast | MDA-MB-435 | MDA-N | MOLT-4 leukemia | NCI-H226 lung | NCI-H23 lung | NCI-H460 lung | NCI-H522 lung | NCI/ADR-RES ovarian | OVCAR-3 ovarian | OVCAR-4 ovarian | OVCAR-5 ovarian | OVCAR-8 ovarian | PC-3 prostate | RPMI-8226 leukemia | RXF 393 renal | SF-268 CNS | SF-295 CNS | SF-539 CNS | SK-MEL-2 melanoma | SK-MEL-28 melanoma | SK-MEL-5 melanoma | SK-OV-3 ovarian | SN12C renal | SNB-19 CNS | SNB-75 CNS | SW-620 colon | T-47D breast | TK-10 renal | U251 CNS | UACC-257 melanoma | UO-31 renal
